Source: PubChem BioAssay AID1918948 (Molecular Pharmacology Branch, DTP, NCI, 2023)

Test system: K-562 leukemia growth, % test/control
Assay: Anticancer human tumor K-562 cell line growth inhibition;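 also: spheroids exposed to compounds for 7 days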;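 as to viability, T/C: 100% = DMSO vehicle wells and lower values mean fewer viable cells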
Settings: spheroids with HUVEC and MSC; for IC50: curve of first compound; for viability, T/C: stronger effect = lower value; active = viability on the fitted dose curve at most 10% of control; inactive = the rest
Outline: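 Multicellular complex spheroids of tumor cells with human endothelial cells (HUVEC) and mesenchymal stem cells; the LSD1 inhibitor iadademstat was combined with standard-of-care or investigational agents. Top concentration at or near clinical Cmax, half-log dilutions; final DMSO ≤0.25%.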

[1] = second compound 0.1 µM, first compound 0.0316 µM
[2] = second compound 0.1 µM, first compound 0.1 µM
[3] = second compound 0.316 µM, first compound 0.0316 µM
[4] = second compound 0.316 µM, first compound 0.1 µM
[5] = second compound 1 µM, first compound 0.0316 µM
[6] = second compound 1 µM, first compound 0.1 µM
[7] = second compound 3.16 µM, first compound 0.0316 µM
[8] = second compound 3.16 µM, first compound 0.1 µM
[9] = second compound 10 µM, first compound 0.0316 µM
[10] = second compound 10 µM, first compound 0.1 µM

CC1(C)CCC(CN2CCN(c3ccc(C(=O)NS(=O)(=O)c4ccc(NCC5CCOCC5)c([N+](=O)[O-])c4)c(Oc4cnc5[nH]ccc5c4)c3)CC2)=C(c2ccc(Cl)cc2)C1 + NC1CC1c1ccc(-c2cccc(O)c2)cc1
4.47 µM: IC50 (second compound 3.16 µM)
inactive: viability, T/C [1] 112% | viability, T/C [2] 114% | viability, T/C (second compound 0.1 µM, first compound 0.316 µM) 118% | viability, T/C (second compound 0.1 µM, first compound 1 µM) 121% | viability, T/C (second compound 0.1 µM, first compound 3.16 µM) 74.6% | viability, T/C [3] 104% | viability, T/C [4] 109% | viability, T/C (second compound 0.316 µM, first compound 0.316 µM) 110% | viability, T/C (second compound 0.316 µM, first compound 1 µM) 114% | viability, T/C (second compound 0.316 µM, first compound 3.16 µM) 75.4% | viability, T/C [5] 102% | viability, T/C [6] 106% | viability, T/C (second compound 1 µM, first compound 0.316 µM) 106% | viability, T/C (second compound 1 µM, first compound 1 µM) 108% | viability, T/C (second compound 1 µM, first compound 3.16 µM) 71.8% | viability, T/C [7] 105% | viability, T/C [8] 105% | viability, T/C (second compound 3.16 µM, first compound 0.316 µM) 107% | viability, T/C (second compound 3.16 µM, first compound 1 µM) 102% | viability, T/C (second compound 3.16 µM, first compound 3.16 µM) 70.7% | viability, T/C [9] 102% | viability, T/C [10] 104% | viability, T/C (second compound 10 µM, first compound 0.316 µM) 105% | viability, T/C (second compound 10 µM, first compound 1 µM) 104% | viability, T/C (second compound 10 µM, first compound 3.16 µM) 50.4%
4.65 µM: IC50 (second compound 0.1 µM)
4.7 µM: IC50 (second compound 0.316 µM)
4.52 µM: IC50 (second compound 1 µM)
active: viability, T/C (second compound 0.1 µM, first compound 10 µM) 1.4% | viability, T/C (second compound 0.316 µM, first compound 10 µM) 1.76% | viability, T/C (second compound 1 µM, first compound 10 µM) 1.59% | viability, T/C (second compound 3.16 µM, first compound 10 µM) 1.97% | viability, T/C (second compound 10 µM, first compound 10 µM) 1.78%
3.19 µM: IC50 (second compound 10 µM)

Cn1ncnc1C1c2n[nH]c(=O)c3cc(F)cc(c23)NC1c1ccc(F)cc1 (stereo not given) + NC1CC1c1ccc(-c2cccc(O)c2)cc1
inactive: viability, T/C (second compound 0.1 µM, first compound 0.000316 µM) 112% | viability, T/C (second compound 0.1 µM, first compound 0.001 µM) 110% | viability, T/C (second compound 0.1 µM, first compound 0.00316 µM) 108% | viability, T/C (second compound 0.1 µM, first compound 0.01 µM) 108% | viability, T/C [1] 105% | viability, T/C [2] 101% | viability, T/C (second compound 0.316 µM, first compound 0.000316 µM) 108% | viability, T/C (second compound 0.316 µM, first compound 0.001 µM) 105% | viability, T/C (second compound 0.316 µM, first compound 0.00316 µM) 105% | viability, T/C (second compound 0.316 µM, first compound 0.01 µM) 105% | viability, T/C [3] 101% | viability, T/C [4] 97.2% | viability, T/C (second compound 1 µM, first compound 0.000316 µM) 106% | viability, T/C (second compound 1 µM, first compound 0.001 µM) 102% | viability, T/C (second compound 1 µM, first compound 0.00316 µM) 97.8% | viability, T/C (second compound 1 µM, first compound 0.01 µM) 96.7% | viability, T/C [5] 97.2% | viability, T/C [6] 95.2% | viability, T/C (second compound 3.16 µM, first compound 0.000316 µM) 106% | viability, T/C (second compound 3.16 µM, first compound 0.001 µM) 100% | viability, T/C (second compound 3.16 µM, first compound 0.00316 µM) 95.6% | viability, T/C (second compound 3.16 µM, first compound 0.01 µM) 98.8% | viability, T/C [7] 98.5% | viability, T/C [8] 93.2% | viability, T/C (second compound 10 µM, first compound 0.000316 µM) 101% | viability, T/C (second compound 10 µM, first compound 0.001 µM) 101% | viability, T/C (second compound 10 µM, first compound 0.00316 µM) 99.7% | viability, T/C (second compound 10 µM, first compound 0.01 µM) 98.4% | viability, T/C [9] 95.4% | viability, T/C [10] 89.1%
> 0.1 µM: IC50 (second compound 0.1 µM) | IC50 (second compound 0.316 µM) | IC50 (second compound 1 µM) | IC50 (second compound 3.16 µM) | IC50 (second compound 10 µM)
